Consider 8 compounds from article PMC11435058, “Synthesis of New Thiazole-Privileged Chalcones as Tubulin Polymerization Inhibitors with Potential Anticancer Activities” (Pharmaceuticals, 2024).

The subject of one series is U251. Briefly: NCI-60 anticancer screen (SRB; single dose and five doses). As to conditions: Homo sapiens; for activity at 10 µM: U-251, 48 h, read-out: Growth Percentage; for CC50: U-251, read-out: LC50; for IC (TGI): U-251, read-out: TGI.
The next series relates to HOP-92. The description is as above. As to conditions: Homo sapiens; for activity at 10 µM: HOP-92, 48 h, read-out: Growth Percentage; for CC50: HOP-92, read-out: LC50; for IC (TGI): HOP-92, read-out: TGI.
Series [1] relates to 60 human tumor cell lines panel. Briefly: NCI-60 anticancer screen, whole panel (means and ranges over the cell lines). Type of series: cell-based. As to conditions: for activity at 10 µM: Homo sapiens, 48 h; for Log10GI50 _MID / Log10LC50 _MID / Log10TGI _MID: five doses, mean graph midpoint over all cell lines.
The test system of the next series is K-562. Briefly: NCI-60 anticancer screen (SRB; single dose and five doses). As to conditions: Homo sapiens; for activity at 10 µM: K562, 48 h, read-out: Growth Percentage; for CC50: K562, read-out: LC50; for IC (TGI): K562, read-out: TGI.
Another series concerns SK-MEL-28. The series is described as above. Particulars: Homo sapiens; for activity at 10 µM: SK-MEL-28, 48 h, read-out: Growth Percentage; for CC50: SK-MEL-28, read-out: LC50; for IC (TGI): SK-MEL-28, read-out: TGI.
In the next series the test system is UACC-62. The description is as above. As to conditions: Homo sapiens; for activity at 10 µM: UACC-62, 48 h, read-out: Growth Percentage; for IC (TGI): UACC-62, read-out: TGI.
The test system of a further series is T-47D. The series is described as above. Particulars: Homo sapiens, T47D; for CC50: read-out: LC50; for IC (TGI): read-out: TGI; for activity at 10 µM: 48 h, read-out: Growth Percentage.
Where [2] appears, read: mean over the tested cell lines, dose of 10 μM, read-out: Mean growth percentage.
The mark [3] stands for this setting: range over the cell lines, dose of 10 μM, read-out: growth percentages against most of the tested cells (lowest to highest).
The mark [4] stands for this setting: read-out: growth percentages against most of the tested cells (lowest to highest).

Molecules are shown by their SMILES. Like-named read-outs stand apart in the source and are kept apart here.

In the case of `Cc1[nH]c(=S)sc1C(=O)/C=C/c1ccccc1` [2a, (E)-1-(4-Methyl-2-Thioxo-2,3-Dihydrothiazol-5-yl)-3-Phenylprop-2-En-1-One], the melting point (in general, the temperature, or range, at which the solid turns liquid) was in the range of 245 to 247 °C. In the series on U251, the activity at 10 µM turned out to be 56.9%. Further, the activity at 10 µM with HOP-92 is 89.6%. Besides, the activity at 10 µM in series [1] (setting [2]) worked out at 65%. Also, the activity at 10 µM in series [1] (setting [3]) is 14.1 to 129%. The activity at 10 µM in the series on K-562 worked out at 51%. Moreover, the activity at 10 µM with SK-MEL-28 was found to be 85.2%. Also, the activity at 10 µM in the series on UACC-62 was determined as 65.3%.
For the compound `Cc1[nH]c(=S)sc1C(=O)/C=C/c1ccc(F)cc1` [2c, (E)-3-(4-Fluorophenyl)-1-(4-Methyl-2-Thioxo-2,3-Dihydrothiazol-5-yl)Prop-2-En-1-One], the GI50 (commonly the concentration giving 50% growth inhibition) in the series on U251 (U-251) was determined as 3.63 µM; in the series on HOP-92 (HOP-92) it was 3.35 µM; in the series on K-562 (K562), 3.25 µM; with SK-MEL-28 (SK-MEL-28), 11.8 µM; in the series on UACC-62 (UACC-62) it was 5.3 µM; with T-47D, 3.94 µM. The activity at 10 µM in the series with U251 was 14.1%; in the series with HOP-92 it was 45.4%; in series [1] (setting [2]), 36.7%; in series [1] (setting [3]) it was -13.6 to 119%; in the series with K-562 it was 20.4%; with SK-MEL-28, 50.6%. Moreover, in the series on UACC-62, the activity at 10 µM stood at 47.3%. In addition, the CC50 in the series with U251 is 41.9 µM; with HOP-92 it was 56 µM; in the series with K-562, above 100 µM; with SK-MEL-28, 51.4 µM; with T-47D it was above 100 µM. In addition, the IC (TGI) was determined as 15.1 µM in the series with U251; 15.8 µM with HOP-92; 48.8 µM with K-562; 24.7 µM with SK-MEL-28; 19.3 µM in the series with UACC-62; 28.8 µM in the series with T-47D. For the same compound, in series [1], the “Log10GI50 _MID” value is given as -5.23 Molar. In series [1], the “Log10LC50 _MID” value is given as -4.26 Molar. The “Log10TGI _MID” value in series [1] was -4.65 Molar.
As for `COc1cccc(/C=C/C(=O)c2sc(=S)[nH]c2C)c1OC` [2m, (E)-3-(2,3-Dimethoxyphenyl)-1-(4-Methyl-2-Thioxo-2,3-Dihydrothiazol-5-yl)Prop-2-En-1-One], the melting point fell in the range of 239 to 240 °C. For the same compound, in the series with U251, the activity at 10 µM stood at 20.3%. Besides, the activity at 10 µM with HOP-92 stood at 61.5%. For the same compound, the activity at 10 µM in series [1] (setting [2]) was found to be 49.9%. Besides, the activity at 10 µM in series [1] (setting [3]) lay in the range of 5.15 to 109%. The activity at 10 µM in the series with K-562 worked out at 27.5%. For the same compound, the activity at 10 µM with SK-MEL-28 was 70%. In the series on UACC-62, the activity at 10 µM was 45.5%. Moreover, the activity at 10 µM in the series on T-47D was found to be 34.5%.
On to `Cc1[nH]c(=S)sc1C(=O)/C=C/c1ccc(Cl)cc1` [2f, (E)-3-(4-Chlorophenyl)-1-(4-Methyl-2-Thioxo-2,3-Dihydrothiazol-5-yl)Prop-2-En-1-One], for which the GI50 with U251 (U-251) was 3.39 µM; in the series on HOP-92 (HOP-92) it was 11.5 µM; in the series on K-562 (K562), 3.89 µM; in the series on SK-MEL-28 (SK-MEL-28) it was 14.5 µM; in the series with UACC-62 (UACC-62), 9.77 µM; with T-47D, 3.47 µM. The IC50 (in general, the concentration that gives 50% inhibition) was 4.79 µM in the series with U251 (U-251); 30.2 µM in the series with HOP-92 (HOP-92); 4.68 µM in the series with K-562 (K562); 26.3 µM with SK-MEL-28 (SK-MEL-28); 17 µM in the series on UACC-62 (UACC-62); 14.1 µM in the series on T-47D. The activity at 10 µM in the series on U251 was 11.3%; in the series with HOP-92, 34.8%; in series [1] (setting [2]), 23.7%; in series [1] (setting [3]), -48.1 to 106%; in the series on K-562, 7.94%; in the series with SK-MEL-28 it was 45.7%. For the same compound, the activity at 10 µM in the series on UACC-62 stood at 33.9%; in the series on T-47D, 1.38%. Moreover, the CC50 is 40.7 µM with U251; 63.1 µM in the series with HOP-92; above 100 µM with K-562; 53.7 µM in the series with SK-MEL-28; 81.3 µM in the series with T-47D. For the same compound, the IC (TGI) in the series with U251 was 13.2 µM; in the series with HOP-92, 26.9 µM; in the series with K-562 it was above 100 µM; in the series on SK-MEL-28, 28.2 µM; in the series on UACC-62, 22.4 µM; in the series with T-47D, 19.1 µM. Further, the “Log10GI50 _MID” value in series [1] was -5.13 Molar. In series [1], the “Log10LC50 _MID” value is recorded as -4.23 Molar. In addition, in series [1], the “Log10TGI _MID” value is -4.63 Molar.
Turning to `Cc1[nH]c(=S)sc1C(=O)/C=C/c1ccc([N+](=O)[O-])cc1` [2i, (E)-1-(4-Methyl-2-Thioxo-2,3-Dihydrothiazol-5-yl)-3-(4-Nitrophenyl)Prop-2-En-1-One], the GI50 is 4.1 µM in the series with U251 (U-251); 12.2 µM with HOP-92 (HOP-92); 3.5 µM in the series with K-562 (K562); 13.7 µM with SK-MEL-28 (SK-MEL-28); 10.5 µM in the series with UACC-62 (UACC-62); 4.96 µM in the series on T-47D. The activity at 10 µM was 13.7% in the series with U251; 57.6% with HOP-92; 25.2% in series [1] (setting [2]); -86.2 to 108% in series [1] (setting [3]); 12.3% in the series with K-562; 23.9% in the series on SK-MEL-28. Also, the activity at 10 µM in the series on UACC-62 worked out at 47.5%; with T-47D it was 44.3%. The CC50 in the series with U251 was 53 µM; in the series on HOP-92, 64.4 µM; in the series on K-562, above 100 µM; with SK-MEL-28, 52.5 µM; with T-47D it was above 100 µM. In addition, the IC (TGI) in the series with U251 is 17 µM; in the series on HOP-92, 28 µM; in the series with K-562 it was above 100 µM; in the series on SK-MEL-28 it was 26.8 µM; in the series on UACC-62, 22.4 µM; with T-47D, 25.7 µM. The “Log10GI50 _MID” value in series [1] is on record as -5.13 Molar. Further, the “Log10LC50 _MID” value in series [1] is listed as -4.25 Molar. Further, in series [1], the “Log10TGI _MID” value is on record as -4.62 Molar.
`COc1ccc(/C=C/C(=O)c2sc(=S)[nH]c2C)cc1` [2l, (E)-3-(4-Methoxyphenyl)-1-(4-Methyl-2-Thioxo-2,3-Dihydrothiazol-5-yl)Prop-2-En-1-One] gave a melting point of 246 to 248 °C. Further, the activity at 10 µM in the series on U251 turned out to be 62.3%. The activity at 10 µM in the series on HOP-92 was 101%. Moreover, the activity at 10 µM in series [1] (setting [4]) fell in the range of 15.1 to 120%. Further, the activity at 10 µM in series [1] (setting [2]) was found to be 74.6%. The activity at 10 µM in the series on K-562 was determined as 56.6%. Further, in the series on SK-MEL-28, the activity at 10 µM is 102%. The activity at 10 µM in the series with UACC-62 amounted to 71.8%.
As to `Cc1[nH]c(=S)sc1C(=O)/C=C/c1ccccc1Cl` [2d, (E)-3-(2-Chlorophenyl)-1-(4-Methyl-2-Thioxo-2,3-Dihydrothiazol-5-yl)Prop-2-En-1-One], the melting point was 240 to 242 °C. The activity at 10 µM with U251 came to 63.3%. Further, the activity at 10 µM in series [1] (setting [2]) is 79.4%. The activity at 10 µM in series [1] (setting [3]) lay within 14.1 to 116%. The activity at 10 µM with K-562 was determined as 47.4%. For the same compound, the activity at 10 µM in the series with SK-MEL-28 came out at 101%. The activity at 10 µM in the series with UACC-62 was 72.9%. For the same compound, the activity at 10 µM in the series on T-47D was 47.3%.
In the case of `Cc1[nH]c(=S)sc1C(=O)/C=C/c1cccc(F)c1` [2b, (E)-3-(3-Fluorophenyl)-1-(4-Methyl-2-Thioxo-2,3-Dihydrothiazol-5-yl)Prop-2-En-1-One], the melting point was in the range of 234 to 236 °C. Also, the activity at 10 µM with U251 was 17.6%. Further, the activity at 10 µM in series [1] (setting [4]) is -22.7 to 106%. Further, the activity at 10 µM in series [1] (setting [2]) was 47.5%. Besides, the activity at 10 µM with K-562 is 22.8%. Also, in the series on SK-MEL-28, the activity at 10 µM came out at 93.7%. Also, the activity at 10 µM with UACC-62 worked out at 58.3%. Besides, the activity at 10 µM in the series on T-47D was 0.69%.
